Where two headings read alike, the source gives them in different places.
Tests used:
[1] = tested on: PC3 human prostate cancer cells; experiment: Cyquant cell viability assay, PC3; type: cell-based; conditions: read-out: ED50 PC3
Experimental: (§1) The cytotoxic effects of paclitaxel, fenbendazole, and albendazole were compared in paclitaxel-resistant PC3-TR and DU145-TR prostate cancer cells with their paclitaxel-sensitive counterparts, PC3 and DU145 cells. Cells were treated for 72 hours with vehicle, paclitaxel, fenbendazole or albendazole in various doses. Cell viability was measured using Cyquant assay, and percent control was calculated by dividing the fluorescent reading from drug-treated cells with those from vehicle-treated cells, indicating percentage of cell survival.

DU145-TR cells [2] = experiment: % apoptotic cells, DU145-TR; type: cell-based, human; conditions: 1 μM
[3] = tested on: paclitaxel-resistant DU145-TR prostate cancer cells; experiment: Cyquant cell viability assay, DU145-TR; type: cell-based, human; conditions: Homo sapiens, read-out: ED50 DU145-TR
Experimental: as §1

DU145-TR cells [4] = experiment: Normalized mitotic index, DU145-TR; type: cell-based, human; conditions: 1 μM
PC-3M cells = experiment: Normalized mitotic index (histone H3 phospho-Serine-28), PC-3M; type: cell-based; conditions: Homo sapiens
From the text: The mitotic index for each agent was normalized against those obtained from vehicle-treated cells, and compared with the activity of paclitaxel, a known inducer of mitotic arrest.

[5] = tested on: multidrug resistant MES-SA/Dx5 human uterine sarcoma cells; experiment: Cell viability, MES-SA/Dx5; type: cell-based; conditions: read-out: ED50 MES-SA/Dx5
From the text: Benzimidazoles retain their anti-tumor activity in these paclitaxel-resistant cells, with higher potency when compared to the parental cells (see Table 4). Cells resistant to microtubule-stabilizing drugs such as the taxanes are more susceptible to microtubule-disrupting agents. To confirm this, human uterine sarcoma MES-SA/Dx5 cells, which are cross-resistant to various chemotherapeutic agents, including the microtubule-disrupting agents vincristine and colchicine, were used.

PC3M cells = experiment: Annexin V/7-AAD apoptosis by flow cytometry, PC3M; type: cell-based, human; conditions: 1 μM, 72 hours, combination carrier
Experimental: All benzimidazole drugs were solubilized in the combination carrier. After 72 hours, the cells were analyzed by annexin V/7-AAD staining.
Annexin V/7-amino-actinomycin D labeling was done according to the manufacturer's instructions (BD Pharmingen, 559763) and samples were analyzed by flow cytometry. Briefly, the cells were treated for 72 hours with either vehicle or 1 μM benzimidazole drugs, solubilized in the combination carrier. Cells were trypsinized and washed with PBS before resuspending in assay binding buffer. Annexin V and 7-amino-actinomycin labeling was performed at room temperature for 15 minutes before analysis by flow cytometry (BD FACScan). Cells positively stained for annexin V in the lower right quadrant and upper right quadrant indicate early and late apoptosis, respectively.

[6] = tested on: PC3M human prostate cancer cells; experiment: Cyquant cell viability assay, PC3M; type: cell-based; conditions: for EC50: Homo sapiens, PC-3M, read-out: ED50 PC3M DMSO
Experimental: PC3M and PC3MLN4 cells were treated with vehicle, fenbendazole in DMSO, and fenbendazole in DMSO/NMP/TWEEN®-80/CrEL in varying doses for 72 hours. Cell viability assays using Cyquant reagent (Invitrogen, C7026) were performed as described in the literature. […] cells were seeded in 96 well plates overnight, before treated with either vehicle or benzimidazole solubilized in DMSO alone or in DMSO (12.5%)/NMP ([…])/TWEEN®-80 (25%)/Cr-EL (25%) for 72 hours. Cells were harvested by removing the media, washing once with phosphate buffered saline (PBS) and freezing at −80° C. for overnight. After thawing to room temperature, Cyquant reagent were prepared and added to the wells and the fluorescence intensity were measured with a spectrometer at 485 nm. Percent control was calculated by dividing the reading from drug-treated cells with the reading from vehicle-treated cells.
ED50 values were calculated from dose-effect analysis performed with Compusyn using data from the Cyquant cell viability assays.
ED50 values were calculated from dose-effect analysis performed with Compusyn using data from the Cyquant cell viability assays. All benzimidazoles drugs were solubilized in the combination carrier.

[7] = tested on: AT6.1 Dunning rat prostate carcinoma; experiment: Survival in intravenous AT6.1 Dunning rat prostate carcinoma lung metastasis model; type: in vivo, nu/nu mice; conditions: for average survival time: FIG. 5 (carrier only 20.4 days); for survival: 100 mg/kg, FIG. 6 (control 24.25 days)
Experimental: Many anti-tumor drugs are tested only for their ability to prevent primary tumor growth or to prevent the dissemination of metastatic cells. To accomplish this, the drug is usually administered shortly after the primary tumor is established. […] The benzimidazoles described herein were evaluated in an experimental metastases model in the lungs of nude mice following tail-vein injection of Dunning rat AT6.1 prostate carcinoma. […] In order to achieve greater bioavailability, we first solubilized benzimidazoles in DNTC formulation and then diluted with saline prior to injection.
Inbred male nu/nu mice age 6-8 weeks were obtained from Massachusetts General Hospital (Boston, Mass.). The mice were virus antibody free, age and weight matched for experimental use and fed with a balanced rodent diet ad libitum. AT6.1 Dunning rat prostate cells were maintained as described above. 1×10^4 log-phase cells were injected via tail vein in 0.1 mL Hanks solution. Vehicle or drug treatment was started on day 5 post inoculation and given three times a week (Monday, Wednesday and Friday) via intraperitoneal injection in 0.5 mL volume. Benzimidazole drugs were prepared in the combination carrier [DMSO (12.5%), NMP (37.5%), TWEEN®-80 (25%) and CrEL (25%)] and diluted in saline. Vehicle control was prepared by diluting the combination carrier with saline.
During the course of treatment, the mice were monitored for toxicity by measuring body weight. […] Animals were euthanized with CO2 and tissues were collected for further analysis. The animals and experiments used in these studies were approved by the institutional animal care committee according to Children's Hospital Boston ARCH guidelines.
To distinguish differences in survival between these groups, the percent increase in life span (ILS %), defined as the percent increase in the mean time to death of drug-treated animals over the corresponding time to death for vehicle-treated mice, was calculated.

[8] = Combination with paclitaxel, Cyquant cell growth inhibition, CompuSyn median-dose effect analysis; type: cell-based; conditions: alone or in combination
Experimental: Cell growth inhibition assays were performed using Cyquant reagent as described above. Drug interactions were quantitated by median-dose effect analysis and combination index values as well as dose reduction index were derived using CompuSyn software (ComboSyn, Inc.), as described previously in the literature. CI values of <1, =1, and >1 indicate synergism, additivity and antagonism between the drugs, respectively.
All benzimidazole drugs were prepared using the combination carrier and diluted with culture medium prior to treatment.

[9] = 100 mg/kg i.p. three times a week, over vehicle-treated mice

Compound | EC50 ([1]; 72 h) [µM] | % Apoptotic cells (72 hours) DU145-TR (DU145-TR cells [2]) [%] | EC50 ([3]; 72 h) [µM] | Normalized mitotic index (6 hours) DU145-TR (DU145-TR cells [4]) | fold induction at 1 µM (PC-3M cells; read-out: Normalized mitotic index PC-3M, at 1 μM, normalized against vehicle-treated cells) | EC50 [5] [µM] | apoptotic cells in PC3M (PC3M cells) [%] | EC50 ([6]; 72 h) [µM] | average survival time ([7]; 50 mg/kg i.p. three times a week from day 5) [days] | average survival time ([7]; 100 mg/kg i.p. three times a week from day 5) [days] | percent increase in life span (ILS %) [7, 9] [%] | survival [7] [days] | percent increase in life span (ILS %) ([7]; 250 mg/kg three times a week) [%] | Dose ABZ ([8]; Fa 0.60) [µM] | EC50 ([1]; 72 hours) [µM] | EC50 ([3]; 72 hours, paclitaxel-resistant) [µM] | fold induction at 1 µM (PC-3M cells; at 1 μM, normalized against vehicle-treated cells, read-out: Normalized mitotic index PC-3M) | EC50 ([6]; solubilized in DMSO alone, 72 hours) [µM] | reduction in ED50, DNTC compared to DMSO, PC-3M ([6]; solubilized in DNTC vs DMSO) [fold] | EC50 ([8]; Fa 0.50, read-out: Dose FBZ) [µM]
CCCSc1ccc2nc(NC(=O)OC)[nH]c2c1 [Albendazole, albendazole] | 4.86 | 55.8 | 1.08 | 1.13 | > 1 | 0.84 | 22 | 4.84 | 24.4 | 32 | 59.7 | 38.75 | 64 | 5.249 | – | – | – | – | – | –
COC(=O)Nc1nc2ccc(Sc3ccccc3)cc2[nH]1 [Fenbendazole, fenbendazole] | – | 43.3 | – | 1.18 | – | 1.13 | 22.8 | – | – | – | 45.3 | 35.25 | – | – | 1.57 | 4.21 | > 1 | 5.4 | ~2 | 6.21

Reference: patent US20120064008A1, “COMPOSITIONS FOR THE TREATMENT OF METASTATIC CANCER AND METHODS OF USE THEREOF” (priority 2009, published 2012)
